Laboratory results as given in the OligoGym collection.
Oligonucleotides are given in HELM: sugar(base)linkage, 5' to 3'; d 2'-deoxyribose, r ribose, m 2'-O-methylribose, p phosphate. ss, as = sense and antisense strand

Biological target: TMEM63B
Assay: reporter assay of Huesken 2005
Details: siRNA
Also: test concentration or dose not given here.

Substance	normalised inhibition (eCFP-eYFP dual reporter) [%]
RNA1{r(C)p.r(U)p.r(U)p.r(C)p.r(U)p.r(U)p.r(U)p.r(U)p.r(C)p.r(C)p.r(A)p.r(C)p.r(C)p.r(A)p.r(U)p.r(G)p.r(C)p.r(G)p.r(C)p.d(T)p.d(T)}|RNA2{r(G)p.r(C)p.r(G)p.r(C)p.r(A)p.r(U)p.r(G)p.r(G)p.r(U)p.r(G)p.r(G)p.r(A)p.r(A)p.r(A)p.r(A)p.r(G)p.r(A)p.r(A)p.r(G)p.d(A)p.d(G)}$$$RNA1{StrandType:ss}|RNA2{StrandType:as}$	39.7
RNA1{r(G)p.r(A)p.r(C)p.r(C)p.r(G)p.r(G)p.r(U)p.r(A)p.r(U)p.r(G)p.r(A)p.r(G)p.r(C)p.r(G)p.r(U)p.r(C)p.r(U)p.r(C)p.r(A)p.d(T)p.d(T)}|RNA2{r(U)p.r(G)p.r(A)p.r(G)p.r(A)p.r(C)p.r(G)p.r(C)p.r(U)p.r(C)p.r(A)p.r(U)p.r(A)p.r(C)p.r(C)p.r(G)p.r(G)p.r(U)p.r(C)p.d(A)p.d(T)}$$$RNA1{StrandType:ss}|RNA2{StrandType:as}$	99
RNA1{r(C)p.r(A)p.r(C)p.r(C)p.r(A)p.r(C)p.r(U)p.r(C)p.r(C)p.r(A)p.r(G)p.r(C)p.r(C)p.r(A)p.r(U)p.r(C)p.r(A)p.r(U)p.r(C)p.d(T)p.d(T)}|RNA2{r(G)p.r(A)p.r(U)p.r(G)p.r(A)p.r(U)p.r(G)p.r(G)p.r(C)p.r(U)p.r(G)p.r(G)p.r(A)p.r(G)p.r(U)p.r(G)p.r(G)p.r(U)p.r(G)p.d(A)p.d(G)}$$$RNA1{StrandType:ss}|RNA2{StrandType:as}$	70.2
RNA1{r(G)p.r(C)p.r(U)p.r(A)p.r(U)p.r(G)p.r(C)p.r(A)p.r(C)p.r(G)p.r(G)p.r(G)p.r(G)p.r(A)p.r(C)p.r(A)p.r(G)p.r(C)p.r(C)p.d(T)p.d(T)}|RNA2{r(G)p.r(G)p.r(C)p.r(U)p.r(G)p.r(U)p.r(C)p.r(C)p.r(C)p.r(C)p.r(G)p.r(U)p.r(G)p.r(C)p.r(A)p.r(U)p.r(A)p.r(G)p.r(C)p.d(T)p.d(G)}$$$RNA1{StrandType:ss}|RNA2{StrandType:as}$	73.2
RNA1{r(U)p.r(G)p.r(C)p.r(A)p.r(G)p.r(C)p.r(G)p.r(A)p.r(G)p.r(U)p.r(C)p.r(C)p.r(C)p.r(U)p.r(G)p.r(C)p.r(A)p.r(C)p.r(A)p.d(T)p.d(T)}|RNA2{r(U)p.r(G)p.r(U)p.r(G)p.r(C)p.r(A)p.r(G)p.r(G)p.r(G)p.r(A)p.r(C)p.r(U)p.r(C)p.r(G)p.r(C)p.r(U)p.r(G)p.r(C)p.r(A)p.d(G)p.d(G)}$$$RNA1{StrandType:ss}|RNA2{StrandType:as}$	25.9
RNA1{r(C)p.r(A)p.r(U)p.r(C)p.r(C)p.r(C)p.r(A)p.r(A)p.r(G)p.r(A)p.r(U)p.r(G)p.r(A)p.r(G)p.r(G)p.r(A)p.r(G)p.r(U)p.r(U)p.d(T)p.d(T)}|RNA2{r(A)p.r(A)p.r(C)p.r(U)p.r(C)p.r(C)p.r(U)p.r(C)p.r(A)p.r(U)p.r(C)p.r(U)p.r(U)p.r(G)p.r(G)p.r(G)p.r(A)p.r(U)p.r(G)p.d(A)p.d(G)}$$$RNA1{StrandType:ss}|RNA2{StrandType:as}$	53
RNA1{r(G)p.r(G)p.r(G)p.r(C)p.r(U)p.r(C)p.r(C)p.r(U)p.r(G)p.r(G)p.r(G)p.r(A)p.r(G)p.r(C)p.r(U)p.r(C)p.r(A)p.r(G)p.r(G)p.d(T)p.d(T)}|RNA2{r(C)p.r(C)p.r(U)p.r(G)p.r(A)p.r(G)p.r(C)p.r(U)p.r(C)p.r(C)p.r(C)p.r(A)p.r(G)p.r(G)p.r(A)p.r(G)p.r(C)p.r(C)p.r(C)p.d(C)p.d(A)}$$$RNA1{StrandType:ss}|RNA2{StrandType:as}$	36.3
RNA1{r(U)p.r(C)p.r(U)p.r(U)p.r(C)p.r(A)p.r(U)p.r(C)p.r(C)p.r(U)p.r(C)p.r(C)p.r(U)p.r(C)p.r(U)p.r(U)p.r(C)p.r(U)p.r(U)p.d(T)p.d(T)}|RNA2{r(A)p.r(A)p.r(G)p.r(A)p.r(A)p.r(G)p.r(A)p.r(G)p.r(G)p.r(A)p.r(G)p.r(G)p.r(A)p.r(U)p.r(G)p.r(A)p.r(A)p.r(G)p.r(A)p.d(G)p.d(G)}$$$RNA1{StrandType:ss}|RNA2{StrandType:as}$	58.4
RNA1{r(A)p.r(U)p.r(G)p.r(C)p.r(G)p.r(U)p.r(A)p.r(G)p.r(A)p.r(C)p.r(A)p.r(C)p.r(A)p.r(C)p.r(C)p.r(U)p.r(C)p.r(C)p.r(A)p.d(T)p.d(T)}|RNA2{r(U)p.r(G)p.r(G)p.r(A)p.r(G)p.r(G)p.r(U)p.r(G)p.r(U)p.r(G)p.r(U)p.r(C)p.r(U)p.r(A)p.r(C)p.r(G)p.r(C)p.r(A)p.r(U)p.d(G)p.d(C)}$$$RNA1{StrandType:ss}|RNA2{StrandType:as}$	76.8
RNA1{r(A)p.r(G)p.r(U)p.r(U)p.r(U)p.r(G)p.r(G)p.r(C)p.r(G)p.r(C)p.r(A)p.r(G)p.r(C)p.r(C)p.r(U)p.r(A)p.r(C)p.r(G)p.r(C)p.d(T)p.d(T)}|RNA2{r(G)p.r(C)p.r(G)p.r(U)p.r(A)p.r(G)p.r(G)p.r(C)p.r(U)p.r(G)p.r(C)p.r(G)p.r(C)p.r(C)p.r(A)p.r(A)p.r(A)p.r(C)p.r(U)p.d(G)p.d(G)}$$$RNA1{StrandType:ss}|RNA2{StrandType:as}$	60.9
RNA1{r(C)p.r(U)p.r(G)p.r(U)p.r(A)p.r(C)p.r(U)p.r(U)p.r(C)p.r(A)p.r(C)p.r(A)p.r(A)p.r(A)p.r(C)p.r(C)p.r(U)p.r(C)p.r(C)p.d(T)p.d(T)}|RNA2{r(G)p.r(G)p.r(A)p.r(G)p.r(G)p.r(U)p.r(U)p.r(U)p.r(G)p.r(U)p.r(G)p.r(A)p.r(A)p.r(G)p.r(U)p.r(A)p.r(C)p.r(A)p.r(G)p.d(C)p.d(T)}$$$RNA1{StrandType:ss}|RNA2{StrandType:as}$	57.4
RNA1{r(G)p.r(G)p.r(C)p.r(C)p.r(U)p.r(G)p.r(C)p.r(U)p.r(C)p.r(A)p.r(U)p.r(G)p.r(U)p.r(A)p.r(C)p.r(A)p.r(U)p.r(G)p.r(A)p.d(T)p.d(T)}|RNA2{r(U)p.r(C)p.r(A)p.r(U)p.r(G)p.r(U)p.r(A)p.r(C)p.r(A)p.r(U)p.r(G)p.r(A)p.r(G)p.r(C)p.r(A)p.r(G)p.r(G)p.r(C)p.r(C)p.d(T)p.d(G)}$$$RNA1{StrandType:ss}|RNA2{StrandType:as}$	71.9
RNA1{r(G)p.r(U)p.r(A)p.r(U)p.r(C)p.r(U)p.r(G)p.r(C)p.r(U)p.r(G)p.r(C)p.r(U)p.r(C)p.r(A)p.r(C)p.r(C)p.r(G)p.r(U)p.r(C)p.d(T)p.d(T)}|RNA2{r(G)p.r(A)p.r(C)p.r(G)p.r(G)p.r(U)p.r(G)p.r(A)p.r(G)p.r(C)p.r(A)p.r(G)p.r(C)p.r(A)p.r(G)p.r(A)p.r(U)p.r(A)p.r(C)p.d(A)p.d(G)}$$$RNA1{StrandType:ss}|RNA2{StrandType:as}$	65.4
RNA1{r(C)p.r(G)p.r(U)p.r(G)p.r(U)p.r(U)p.r(A)p.r(C)p.r(A)p.r(A)p.r(C)p.r(G)p.r(U)p.r(G)p.r(G)p.r(C)p.r(U)p.r(C)p.r(G)p.d(T)p.d(T)}|RNA2{r(C)p.r(G)p.r(A)p.r(G)p.r(C)p.r(C)p.r(A)p.r(C)p.r(G)p.r(U)p.r(U)p.r(G)p.r(U)p.r(A)p.r(A)p.r(C)p.r(A)p.r(C)p.r(G)p.d(G)p.d(G)}$$$RNA1{StrandType:ss}|RNA2{StrandType:as}$	91.6
RNA1{r(C)p.r(U)p.r(G)p.r(C)p.r(G)p.r(C)p.r(U)p.r(G)p.r(C)p.r(C)p.r(U)p.r(G)p.r(G)p.r(U)p.r(C)p.r(A)p.r(U)p.r(C)p.r(A)p.d(T)p.d(T)}|RNA2{r(U)p.r(G)p.r(A)p.r(U)p.r(G)p.r(A)p.r(C)p.r(C)p.r(A)p.r(G)p.r(G)p.r(C)p.r(A)p.r(G)p.r(C)p.r(G)p.r(C)p.r(A)p.r(G)p.d(C)p.d(C)}$$$RNA1{StrandType:ss}|RNA2{StrandType:as}$	66.1
RNA1{r(G)p.r(C)p.r(U)p.r(G)p.r(C)p.r(U)p.r(G)p.r(A)p.r(A)p.r(G)p.r(C)p.r(A)p.r(C)p.r(C)p.r(U)p.r(G)p.r(G)p.r(U)p.r(A)p.d(T)p.d(T)}|RNA2{r(U)p.r(A)p.r(C)p.r(C)p.r(A)p.r(G)p.r(G)p.r(U)p.r(G)p.r(C)p.r(U)p.r(U)p.r(C)p.r(A)p.r(G)p.r(C)p.r(A)p.r(G)p.r(C)p.d(A)p.d(T)}$$$RNA1{StrandType:ss}|RNA2{StrandType:as}$	82.4
RNA1{r(A)p.r(U)p.r(C)p.r(A)p.r(U)p.r(C)p.r(A)p.r(U)p.r(C)p.r(A)p.r(C)p.r(C)p.r(A)p.r(C)p.r(C)p.r(A)p.r(U)p.r(G)p.r(G)p.d(T)p.d(T)}|RNA2{r(C)p.r(C)p.r(A)p.r(U)p.r(G)p.r(G)p.r(U)p.r(G)p.r(G)p.r(U)p.r(G)p.r(A)p.r(U)p.r(G)p.r(A)p.r(U)p.r(G)p.r(A)p.r(U)p.d(G)p.d(G)}$$$RNA1{StrandType:ss}|RNA2{StrandType:as}$	59.5
RNA1{r(G)p.r(A)p.r(U)p.r(A)p.r(C)p.r(U)p.r(G)p.r(U)p.r(G)p.r(G)p.r(A)p.r(C)p.r(C)p.r(C)p.r(C)p.r(A)p.r(G)p.r(A)p.r(A)p.d(T)p.d(T)}|RNA2{r(U)p.r(U)p.r(C)p.r(U)p.r(G)p.r(G)p.r(G)p.r(G)p.r(U)p.r(C)p.r(C)p.r(A)p.r(C)p.r(A)p.r(G)p.r(U)p.r(A)p.r(U)p.r(C)p.d(T)p.d(G)}$$$RNA1{StrandType:ss}|RNA2{StrandType:as}$	73.8
RNA1{r(C)p.r(U)p.r(G)p.r(C)p.r(U)p.r(G)p.r(A)p.r(A)p.r(G)p.r(C)p.r(A)p.r(C)p.r(C)p.r(U)p.r(G)p.r(G)p.r(U)p.r(A)p.r(G)p.d(T)p.d(T)}|RNA2{r(C)p.r(U)p.r(A)p.r(C)p.r(C)p.r(A)p.r(G)p.r(G)p.r(U)p.r(G)p.r(C)p.r(U)p.r(U)p.r(C)p.r(A)p.r(G)p.r(C)p.r(A)p.r(G)p.d(C)p.d(A)}$$$RNA1{StrandType:ss}|RNA2{StrandType:as}$	75
RNA1{r(G)p.r(U)p.r(G)p.r(G)p.r(U)p.r(G)p.r(G)p.r(C)p.r(C)p.r(G)p.r(C)p.r(G)p.r(C)p.r(C)p.r(C)p.r(A)p.r(U)p.r(C)p.r(C)p.d(T)p.d(T)}|RNA2{r(G)p.r(G)p.r(A)p.r(U)p.r(G)p.r(G)p.r(G)p.r(C)p.r(G)p.r(C)p.r(G)p.r(G)p.r(C)p.r(C)p.r(A)p.r(C)p.r(C)p.r(A)p.r(C)p.d(C)p.d(T)}$$$RNA1{StrandType:ss}|RNA2{StrandType:as}$	46.3
